Test results: EP2601963B1, “N-ISOVALEROYL-L-GLUTAMYL-L-TRYPTOPHAN AS AN AGENT INHIBITING THE FORMATION OF ULCERS IN THE STOMACH AND THE DUODENUM” (Obshestvo S Ogranichennoj Otvetstvennostju "CytoNIR", priority 2010, dated 2015)

What was measured:
[1] = tested on: indomethacin-induced ulcers; test: Indomethacin-induced ulcer model, therapeutic treatment: healing of gastric lesions; format: in vivo, male Wistar rats; parameters: key to gastroprotective activity (first value, GA1) / GA1 (gastroprotective activity calculated for number of lesions): GA1 = PI of control group / PI of experimental group; key to gastroprotective activity (second value, GA2): GA2 = UI of control group / UI of experimental group; key to Ulcer Index: UI = average lesion area in group × % animals with lesions / 100; Lesion Size: unit not given here
Description: All studies were conducted on male Wistar rats weighing 220 ± 20 g, obtained from Rappolovo nursery (Leningrad oblast). For 14 days prior to the experiment, the animals were held in isolation. The animals were handled in accordance with the European Convention for the Protection of Vertebrate Animals used for Experimental and Other Scientific Purposes (Strasburg, 1986). The animals were held in standard plastic cages and fed a standard diet of PK120-3 (granulated feed in accordance with order # 1179 M3 USSR 10/10/1983) with a free access to water.
Animals' body weight changes were monitored throughout the experiment. The experimental animals were then sacrificed by decapitation, and their blood was collected in test tubes. The stomachs were extracted, dissected along the major curve, rinsed with cold saline solution, and the mucosa was carefully examined through a magnifying glass under bright lights. The mucosa was inspected for color, the presence of hyperemia and its intensity. The number of lesions, which were differentiated into small round (less than 1 mm), linear, and large lesions (more than 1mm) and the size of the area they covered were calculated. The average number of lesions per one animal in a group and the percentage of animals with ulcers were also calculated. Pauls Index (PI) was used as an integral indicator of the number of lesions and was calculated as follows: • PI = average number of lesions in a group x % of animals with lesions/100 [Pauls F., Wick A.M.,Mac. Key E.M. et al. An assau method for anti ulcer substances // Gastroenterology.- 1947. #8.- p.p.774 - 782]. Ulcer index UI was calculated as: UI = average lesion area size in the group x % of animals with lesions/100; gastroprotective activity GA1 was calculated as: GA1 = PI of the control group/PI of the experimental group, GA2 = UI of the control group/UI of the experimental group.
Five groups of 10 animals per group were prepared for the experiment as described in Example 1.
In each series of the experiments, the animals were divided into experimental and control groups at 10 animals per group. The proposed medication or a comparator drug were orally administered to the animals in the experimental group, and the control animals were given distilled water in the same amount. • control group received distilled water per os; • experimental group 1 received 0.1 mkg/kg isovaleroyl glutamyl tryptophan; • experimental group 2 received 10 mkg/kg isovaleroyl glutamyl tryptophan; • experimental group 3 received 200 mkg/kg of the comparator drug Sucralfate.
2 ml/kg of the ulcerogenic dose of indomethacin equal to 30 mg/kg was administered intraperitoneally. The treatment started 24 hrs. post indomethacin administration and continued for 5 days. The animals in the experimental groups received N-isovaleroyl-L-glutamyl-L-tryptophan or the comparator drug Sucralfate, and the control group received distilled water.

[2] = tested on: indomethacin-induced ulcers; test: as above; format: in vivo, male Wistar rats; parameters: key to GA1 (gastroprotective activity calculated for number of lesions): GA1 = PI of control group / PI of experimental group; key to GA2 (gastroprotective activity calculated for lesion size): GA2 = UI of control group / UI of experimental group; key to Ulcer Index: UI = average lesion area in group × % animals with lesions / 100; Lesion Size: unit not given here
[3] = 0.1 mkg/kg, treatment after Indomethacin
[4] = Indomethacin 30 mg/kg + 10 mkg/kg, treatment 5 days
[5] = Indomethacin 30 mg/kg + 1 mkg/kg, treatment 5 days

In the case of “N-isovaleroyl-L-glutamyl-L-tryptophan [VGT preparation]”, the “gastroprotective activity (first value, GA1)” value [1, 3] is reported as 2, the “gastroprotective activity (second value, GA2)” value [1, 3] is reported as 2.6 and the “# Lesions” value [1, 4] is reported as 6.2 ± 1.3. For the same substance, the “% Animals with Ulcers” value [1, 4] was 100%, the “GA1 (gastroprotective activity calculated for number of lesions)” value [1, 4] was 1.4 and the “Lesion Size” value [1, 4] was 23.6 ± 6.1. The PI [1, 4] was 6.2, the “Ulcer Index” value [1, 4] was 23.6 and the “Pauls index lower than that of the control animals” value [2, 3] was 2 times. For the same substance, the “# Lesions” value [2, 5] was 4.1 ± 0.8, the “% Animals with Ulcers” value [2, 5] was 100% and the “GA1 (gastroprotective activity calculated for number of lesions)” value [2, 5] was 2.0. For the same substance, the “GA2 (gastroprotective activity calculated for lesion size)” value [2, 5] was 2.6, the “Lesion Size” value [2, 5] was 12.3 ± 3.5 and the PI [2, 5] was 4.1. For the same substance, the “Ulcer Index” value [2, 5] was 12.3 and the “GA2 (gastroprotective activity calculated for lesion size)” value [2, 4] was 1.4.
